How the values were obtained:
HuR in MALME-3M cells = assay: Western blot of nuclear and cytoplasmic fractions for HuR expression, MALME-3M; assay type: cell-based, human; details: for HuR cytoplasmic content: C1 5 mM or 1 mM for 6 days, C2 15 μM 24 h
Excerpt: (§1) Some HIV protease inhibitors (such as Nelfinavir) have been used in combination with a BRAF inhibitor to potentiate its effect (Smith et al., 2016, cancer cell, 29(3): 270-284) and some HIV protease inhibitors have (such as Lopinavir) been reported as increasing the cytosolic translocation of HuR (Chen et al., 2009, Biochem Pharmacol., 78(1): 70-77). Further, some polyamine depleting agents i.e. agents reducing the cellular content in polyamines (α-difluoromethylornithine (DFMO), also named Eflornithin) have been reported to modulate cytoplasmic HuR levels (Zou et al., 2006, J. Biol. Chem., 281(28):19387-94). Therefore, a […], Eflornithine (DFMO) and a HIV protease inhibitor, lopinavir ((2S)-N-[(2S,4S,5S)-5-[[2-(2,6-dimethylphenoxy)acetyl]amino]-4-hydroxy-1,6-diphenylhexan-2-yl]-3-methyl-2-(2-oxo-1,3-diazinan-1-yl)butanamide) were tested as comparative examples ((comparative compounds C1 and C2, respectively)) for their ability to increase HuR cytoplasmic localization in melanoma (A375 and the MALME-3M cells (melanoma BRAF mutated sensitive cell lines) cell lines as follows and analysis was conducted by Western blot analysis as described in Example 1 [, except that the cells were treated with comparative compound C1 dissolved in DMSO at 5 mM or at 1 mM for 6 consecutive days, where fresh medium with C1 was added in 6 well plates every day and the cells were split every 3 days or the cells were treated with C2 at 15 μM dissolved in DMSO for 24 h. Cell fractionation was conducted using the NE-PER Nuclear and Cytoplasmic Extraction Reagents (ThermoFisher Scientific) according to the manufacturer's instructions. Nuclear (N) and cytoplasmic (C) fractions were analyzed for HuR expression by western blot as described above. […] As a comparison of successful increase in HuR cytoplasmic content, western blot analysis was performed on cells infected with aG or aH at m.o.i 5, 25 or 125 as described in Example1 (FIG. 8C).
(§2) Western blot analysis was conducted as described in Examples 1 and 5, except that cells were treated with LiCl at 1 mM (for 6 h for A375 and for 24 h for MALME-3M cells) before cell lysis and analysis. […] Considering that HuR is mainly a nuclear protein, the absence of any nuclear contamination in the cytoplasm as observed here fulfils the experimental requirements. The increased cytoplasmic expression of HuR was quantified as being respectively 80% and 50% increased in A375 and Malme 3M melanoma cells using an image quantification software (ImageJ).

HuR in A375 cells = assay: Western blot of nuclear and cytoplasmic fractions for HuR expression, A375; assay type: cell-based, human; details: for HuR cytoplasmic content: C1 5 mM or 1 mM for 6 days, C2 15 μM 24 h
Excerpt: as §1, §2

[1] = test system: HuR in A375 melanoma cells; assay: Whole cell extract western blot on HuR-expressing adenovirus-infected A375 cells; details: Li 1 mM and 10 mM
Description: Western blot analysis was performed on cell extracts of A375 cells at 48 h post-infection. Whole cell lysates were prepared using RIPA (radioimmunoprecipitation assay) buffer (PBS (phosphate-buffered saline), 1% NP40 (nonyl phenoxypolyethoxylethanol 40), 0.1% sodium deoxycholate, 0.1% SDS (sodium dodecyl sulphate)) supplemented with fresh protease and phosphatase inhibitors (easy packs tablets, Roche). Cell lysates were quantified for protein content using Bio-Rad DC (detergent compatible) kit. Protein samples were resolved on 12.5% polyacrylamide Bis-Tris gel (Bio-rad) and then transferred to nitrocellulose membrane. After saturation, the membranes were incubated overnight with the anti-HuR mouse monoclonal antibody (Santa-Cruz/3A2-sc-5261, 1:1000) raised against full-length HuR of human origin. The secondary antibody conjugated to horseradish-peroxidase (Bio-Rad goat anti-mouse IgG-HRP, 1:3000) was incubated at room temperature for 30 minutes. Blots were developed using the ECL (enhanced chemiluminescent) system (Thermo-Scientific) according to the manufacturer's instructions.

[2] = test system: BRAF-mutant colorectal patients; details: BRAF-mutant colorectal patients (Kopetz et al., 2010); cited from earlier work
A375 cells = assay: WST-1 cell proliferation assay, vemurafenib dose response; assay type: cell-based; details: for proliferation rate increase (paradoxical proliferation): A375 cells, 48 h
Description: The A375 BRAFV600E melanoma cell line was purchased from CLS Cell Lines Service GmbH (Cryovial: 300110). A375 cells were maintained at 37° C. and 5% CO2 in a humidified atmosphere and grown in DMEM (Dulbecco's modified Eagle's medium) growth media supplemented with 10% FBS (fetal bovine serum), 2 mM glutamine, 1% penicillin/streptomycin. Cells were verified to be mycoplasma-free (PanReac Applichem mycoplasma test kit). Cells were treated with the BRAF inhibitor, vemurafenib (Selleckchem), also known as N-[3-[5-(4-chlorophenyl)-1H-pyrrolo[2,3-b]pyridine-3-carbonyl]-2,4-difluorophenyl]propane-1-sulfonamide and dissolved in dimethyl sulphoxide (DMSO, 10 mM storing concentration).
Cell proliferation was measured using WST-1 reagent (Roche applied Science). Melanoma cells were plated (2500 cells per well) in 96-well tissue culture plates. After 24 h, the cells were treated with vemurafenib or DMSO (excipient) at the indicated concentrations in triplicate or quadruplicate. The excipient is used at the same dilution as the one necessary to get the desired concentration of vemurafenib, in that case for example if 1/1000 dilution is necessary to get a 100 nM final concentration of vemurafenib, then the DMSO pure stock solution will be also diluted to 1/1000. For the standard proliferation assays, after the treatment period of 48 h, WST-reagent (20 μl, 10% of the final volume) was added to the wells and incubated at 37° C. for 1 to 2 h depending on the experiment in order to stay within the linear range of the assay. The plates were read at 450(−650) nm on a Vmax kinetic ELISA Microplate Reader (Molecular Devices). Cell proliferation is expressed as percentage of the absorbance compared with the DMSO-treated cells. Proliferation assays for overexpression experiments were scheduled as follows: A375 cells were plated (800000 cells per well) in six-well culture plates. After 24 h, the cells were infected overnight at indicated m.o.i. […]

In the case of `NCCC[C@](N)(C(=O)O)C(F)F` [C1, α-difluoromethylornithine], the HuR cytoplasmic content (HuR in MALME-3M cells; MALME-3M cells) is reported as “no increase of HuR cytoplasmic content” and the HuR cytoplasmic content (HuR in A375 cells) is reported as “no increase of HuR cytoplasmic content”.
With `Cc1cccc(C)c1OCC(=O)N[C@@H](Cc1ccccc1)[C@@H](O)C[C@H](Cc1ccccc1)NC(=O)[C@H](C(C)C)N1CCCNC1=O` [C2, (2S)-N-[(2S,4S,5S)-5-[[2-(2,6-dimethylphenoxy)acetyl]amino]-4-hydroxy-1,6-diphenylhexan-2-yl]-3-methyl-2-(2-oxo-1,3-diazinan-1-yl)butanamide] the HuR cytoplasmic content (HuR in MALME-3M cells; MALME-3M cells) was “no increase of HuR cytoplasmic content” and the HuR cytoplasmic content (HuR in A375 cells) was “no increase of HuR cytoplasmic content”.
For `[Cl-].[Li+]` [LiCl, Lithium Chloride], the “total amount of HuR expression and HuR cytoplasmic content” value (HuR in MALME-3M cells; MALME-3M cells, LiCl 1 mM) was “increase of both total amount of HuR expression and HuR cytoplasmic content”, the “increased cytoplasmic expression of HuR (ImageJ quantification)” value (HuR in MALME-3M cells; Malme 3M cells, LiCl 1 mM, 24 h) was 50% and the “total amount of HuR expression (endogenous and exogenous epitope-tagged HuR)” value [1] was “clearly increases the total amount of HuR expression with a dose effect”. The “total amount of HuR expression and HuR cytoplasmic content” value (HuR in A375 cells; LiCl 1 mM) was “increase of both total amount of HuR expression and HuR cytoplasmic content” and the “increased cytoplasmic expression of HuR (ImageJ quantification)” value (HuR in A375 cells; LiCl 1 mM, 6 h) was 80%.
For `CCCS(=O)(=O)Nc1ccc(F)c(C(=O)c2c[nH]c3ncc(-c4ccc(Cl)cc4)cc23)c1F` [vemurafenib, N-{3-[5-(4-chlorophenyl)-1H-pyrrolo[2,3-b]pyridine-3-carbonyl]-2,4-difluorophenyl}propane-1-sulfonamide], the patients who respond [2] is given as about 5%, the “proliferation rate increase (paradoxical proliferation)” value (A375 cells; 20 nM vemurafenib) is given as “up to 50%” and the “proliferation rate increase (paradoxical proliferation)” value (A375 cells; 100 nM vemurafenib) is given as “up to 25%”. The vemurafenib-induced paradoxical proliferation (A375 cells; aH cells (HuR-overexpressing A375), in contrast to aG or non-infected cells) was “no vemurafenib-induced paradoxical proliferation was observed”.

Reference: patent US10772875B2, “Agents enhancing HuR/ELAV protein levels for use in the treatment of BRAF-mutated cancers” (LES HOPITAUX UNIVERSITAIRES DE GENEVE, priority 2017, dated 2020)
